# How the values were obtained:
# [1] = target: T1, recombinant SARS-CoV-2 main protease (Mpro) (Severe acute respiratory syndrome coronavirus 2, UniProt P0DTD1); assay: biochemical; settings: FRET assay, Mpro 50 nM, substrate 10 μM
# T1 construct: the main protease (Mpro; also called 3CLpro) which has an essential role in processing the polyproteins
# [2] = system: SARS-CoV-2 (SARS-CoV2/ZG/297-20) in Vero E6 cells; assay: microbe, parasite or virus in culture; type: cell-based; settings: Severe acute respiratory syndrome coronavirus 2, Vero C1008, 72 h; for inhibition at 10 µM: read-out: Antiviral Activity 10 uM; for inhibition at 50 µM: read-out: Antiviral Activity 50 uM
SMILES,IC50 [1],inhibition at 10 µM [2],inhibition at 50 µM [2]
O=C1CCC(N2C(=O)c3cccc(NCCOCCOCCOCCNC(=O)C(NC(=O)[C@@H](c4cccnc4)N(C(=O)c4ccco4)c4ccc5c(c4)oc4ccccc45)c4ccccc4)c3C2=O)C(=O)N1 (mixture of isomers) [TS297F1],< 1 µM,< 0%,< 0%
O=C1CCC(N2C(=O)c3cccc(NCCCCCNC(=O)C(NC(=O)[C@@H](c4cccnc4)N(C(=O)c4ccco4)c4ccc5c(c4)oc4ccccc45)c4ccccc4)c3C2=O)C(=O)N1 (mixture of isomers) [TS301F1],10 to 25 µM,< 0%,< 0%
O=C1CCC(N2C(=O)c3cccc(NCCOCCOCCOCCOCCNC(=O)C(NC(=O)[C@@H](c4cccnc4)N(C(=O)c4ccco4)c4ccc5c(c4)oc4ccccc45)c4ccccc4)c3C2=O)C(=O)N1 (mixture of isomers) [TS303F1],< 1 µM,< 0%,< 0%
O=C1CCC(N2C(=O)c3cccc(NCCOCCNC(=O)C(NC(=O)[C@@H](c4cccnc4)N(C(=O)c4ccco4)c4ccc5c(c4)oc4ccccc45)c4ccccc4)c3C2=O)C(=O)N1 (mixture of isomers) [TS312F1],< 10 µM,< 0%,< 0%
O=C1CCC(N2C(=O)c3cccc(NCCCCNC(=O)[C@@H](NC(=O)C(c4cccnc4)N(C(=O)c4ccco4)c4ccc5c(c4)oc4ccccc45)c4ccccc4)c3C2=O)C(=O)N1 (mixture of isomers) [TS313F1],< 1 µM,< 25%,< 0%
O=C1CCC(N2C(=O)c3cccc(NCCNC(=O)[C@@H](NC(=O)[C@@H](c4cccnc4)N(C(=O)c4ccco4)c4ccc5c(c4)oc4ccccc45)c4ccccc4)c3C2=O)C(=O)N1 (mixture of isomers) [TS365F1],< 1 µM,< 75%,< 25%
O=C1CCC(N2C(=O)c3cccc(NCCCCCCCCNC(=O)[C@@H](NC(=O)C(c4cccnc4)N(C(=O)c4ccco4)c4ccc5c(c4)oc4ccccc45)c4ccccc4)c3C2=O)C(=O)N1 (mixture of isomers) [TS369F1],> 25 µM,< 25%,< 25%
O=C1CCC(N2C(=O)c3cccc(NCCNC(=O)[C@H](NC(=O)[C@@H](c4cccnc4)N(C(=O)c4ccco4)c4ccc(-c5ccccc5)cc4)c4ccccc4)c3C2=O)C(=O)N1 (mixture of isomers) [TS449F1],< 0.1 µM,< 0%,< 0%
O=C1CCC(N2C(=O)c3cccc(NCCCCNC(=O)[C@H](NC(=O)[C@@H](c4cccnc4)N(C(=O)c4ccco4)c4ccc(-c5ccccc5)cc4)c4ccccc4)c3C2=O)C(=O)N1 (mixture of isomers) [TS451F1],< 10 µM,< 0%,< 0%
O=C1CCC(N2C(=O)c3cccc(NCCOCCOCCOCCNC(=O)[C@H](NC(=O)[C@@H](c4cccnc4)N(C(=O)c4ccco4)c4ccc(-c5ccccc5)cc4)c4ccccc4)c3C2=O)C(=O)N1 (mixture of isomers) [TS455F1],< 0.1 µM,< 0%,< 0%
"O=C1CCC(N2C(=O)c3cccc(NCCCNC(=O)[C@@H](NC(=O)[C@@H](c4cccnc4)N(C(=O)c4ccco4)c4ccc(-c5ccccc5)cc4)c4ccccc4)c3C2=O)C(=O)N1 (single isomer, unassigned) [TS450F1]",< 1 µM,< 0%,< 0%
"O=C1CCC(N2C(=O)c3cccc(NCCOCCNC(=O)[C@@H](NC(=O)[C@@H](c4cccnc4)N(C(=O)c4ccco4)c4ccc(-c5ccccc5)cc4)c4ccccc4)c3C2=O)C(=O)N1 (single isomer, unassigned) [TS453F1b]",< 1 µM,< 0%,< 0%
"O=C1CCC(N2C(=O)c3cccc(NCCOCCOCCNC(=O)C(NC(=O)C(c4cccnc4)N(C(=O)c4ccco4)c4ccc(-c5ccccc5)cc4)c4ccccc4)c3C2=O)C(=O)N1 (single isomer, unassigned) [TS454F1]",< 1 µM,< 0%,< 0%
"O=C1CCC(N2C(=O)c3ccc(NCCOCCNC(=O)[C@H](NC(=O)[C@@H](c4cccnc4)N(C(=O)c4ccco4)c4ccc(-c5ccccc5)cc4)c4ccccc4)cc3C2=O)C(=O)N1 (single isomer, unassigned) [TS462]",< 1 µM,< 25%,< 25%
"O=C1CCC(N2C(=O)c3ccc(NCCOCCOCCNC(=O)[C@H](NC(=O)[C@@H](c4cccnc4)N(C(=O)c4ccco4)c4ccc(-c5ccccc5)cc4)c4ccccc4)cc3C2=O)C(=O)N1 (single isomer, unassigned) [TS464]",< 1 µM,< 0%,< 25%
"O=C1CCC(N2C(=O)c3ccc(NCCOCCOCCOCCNC(=O)[C@H](NC(=O)[C@@H](c4cccnc4)N(C(=O)c4ccco4)c4ccc(-c5ccccc5)cc4)c4ccccc4)cc3C2=O)C(=O)N1 (single isomer, unassigned) [TS465]",< 0.1 µM,< 25%,< 50%
"O=C1CCC(N2C(=O)c3ccc(N4CCN(C(=O)[C@H](NC(=O)[C@@H](c5cccnc5)N(C(=O)c5ccco5)c5ccc(-c6ccccc6)cc5)c5ccccc5)CC4)cc3C2=O)C(=O)N1 (single isomer, unassigned) [TS466]",< 0.1 µM,< 0%,< 0%
C[C@H](NC(=O)[C@@H](c1cccnc1)N(C(=O)c1ccco1)c1ccc(-c2ccccc2)cc1)c1ccccc1OCCCCOc1cccc2c1C(=O)N(C1CCC(=O)NC1=O)C2=O (stereo in doubt) [TS355F1],< 10 µM,–,–
O=C1CCC(N2C(=O)c3cccc(NCCOCCOCCNC(=O)[C@@H](NC(=O)C(c4cccnc4)N(C(=O)c4ccco4)c4ccc5c(c4)oc4ccccc45)c4ccccc4)c3C2=O)C(=O)N1 (some centres unmarked) [TS302F1],< 10 µM,–,–
C[C@@H](NC(=O)[C@H](c1cccnc1)N(C(=O)c1ccco1)c1ccc(-c2ccccc2)cc1)c1cccc(OCCCCOc2cccc3c2C(=O)N(C2CCC(=O)NC2=O)C3=O)c1 (some centres unmarked) [TS325F1],< 10 µM,–,–
C[C@@H](NC(=O)C(c1cccnc1)N(C(=O)c1ccco1)c1ccc(-c2ccccc2)cc1)c1cccc(OCCCCOc2cccc3c2C(=O)N(C2CCC(=O)NC2=O)C3=O)c1 (some centres unmarked) [TS325F2],< 10 µM,–,–
C[C@@H](NC(=O)[C@H](c1cccnc1)N(C(=O)c1ccco1)c1ccc(-c2ccccc2)cc1)c1cccc(OCCOc2cccc3c2C(=O)N(C2CCC(=O)NC2=O)C3=O)c1 (some centres unmarked) [TS338F1],10 to 25 µM,–,–
C[C@@H](NC(=O)[C@H](c1cccnc1)N(C(=O)c1ccco1)c1ccc(-c2ccccc2)cc1)c1cccc(OCCCCCCCCOc2cccc3c2C(=O)N(C2CCC(=O)NC2=O)C3=O)c1 (some centres unmarked) [TS339F2],10 to 25 µM,–,–
Cc1ncsc1-c1ccc(CNC(=O)[C@@H]2C[C@@H](O)CN2C(=O)[C@@H](NC(=O)C2(F)CC2)C(C)(C)C)c(OCCNC(=O)[C@@H](NC(=O)C(c2cccnc2)N(C(=O)c2ccco2)c2ccc3c(c2)oc2ccccc23)c2ccccc2)c1 (some centres unmarked) [TS347F1],< 10 µM,–,–
Cc1ncsc1-c1ccc(CNC(=O)[C@@H]2C[C@@H](O)CN2C(=O)[C@@H](NC(=O)C2(F)CC2)C(C)(C)C)c(OCCCCCCNC(=O)[C@@H](NC(=O)C(c2cccnc2)N(C(=O)c2ccco2)c2ccc3c(c2)oc2ccccc23)c2ccccc2)c1 (some centres unmarked) [TS349F1],< 10 µM,–,–

# Reference: US20260137677A1, “PROTACS USEFUL AGAINST THE MAIN PROTEASE SARS-COV-2” (Tocris Cookson Limited, priority 2022, published 2026)
